For one series, the system named is soybean accessions. As to conditions: for Mean off-target dicamba damage score: 1 to 5 scale. The text has this:
A total of 382 genetically diverse soybean accessions with maturity groups (MG) ranging from MG 3 to 5 were used in this study. These comprise a subset of the USDA Soybean Germplasm Collection and originated from […], including Algeria (2), China (226), Costa Rica (1), Georgia (2), Indonesia (1), Japan (38), Nepal (1), North Korea (20), Russia (5), South Africa (1), South Korea (32), Taiwan (3), United States (40), and Vietnam (5). Five accessions have unknown origins. The USDA Soybean Germplasm Collection was genotyped with the SoySNP50K BeadChip.
Field trials were conducted in three environments for two years (2020-2021) using a two-replicate randomized complete block design in Portageville, MO (36°23′44.2″N lat; 89°36′52.3″W long) and Clarkton, MO (36°29′14.8″N lat; 89°57′39.0″W long). Each plot consisted of a single 2.13 m long row spaced 0.76 m apart.
Each year, genotypes were visually assessed for off-target dicamba damage once in the early reproductive stage between R1 to R3 (approximately […]). Lines were rated on a 1 to 5 scale with 0.5 increments.
Adjusted means across environments were calculated using the function ‘ls_means’ of the R package ‘lmerTest’ (available at https://www.r-project.org/) based on a mixed-effects linear model conducted with the package ‘lme4’. The model included the fixed effect of genotype, the random interaction between genotype and environment (G×E), the random effect of environment, and the nested random effect of replication within the environment. To measure the consistency and inter-relatedness of the damage ratings across environments, Cronbach's alpha (α) score was calculated each year using the R package ‘psych’ (Revelle, 2021) based on Eq. 1.

For series [1] the following is noted: cited from earlier work.

Where two headings read alike, the source gives them in different places.

With `COc1c(Cl)ccc(Cl)c1C(=O)O` [dicamba, 3,6-dichloro-2-methoxybenzoic acid], the “Mean off-target dicamba damage score” value is 2.70 with soybean accessions (environment 2020-Clarkton); 2.80 in the series on soybean accessions (environment 2021-Clarkton); 2.60 in the series with soybean accessions (environment 2021-LeeFarm); 2.70 in the series on soybean accessions (overall, three environments 2020-2021, 382 accessions). Besides, the average damage in the series with soybean accessions (accession PI 88788) is reported as 3.5; in the series with soybean accessions (accession PI 342434 (Japan)), 1.5; in the series with soybean accessions (accession PI 424005 (South Korea)), 1.2; with soybean accessions (accession PI 424038-B (South Korea)) it was 1.3; in the series on soybean accessions (accession PI 547862 (L83-570, United States)), 4.1; in the series with soybean accessions (accession PI 552538 (Dunbar, United States)), 4.2. In addition, the average damage is recorded as 1.4 in the series on soybean accessions (accession PI 561701 (G88-20092, United States)); 4.5 with soybean accessions (accession PI 597387 (Pana, United States)); 4.3 in the series on soybean accessions (accession PI 598124 (Maverick, United States)); 1.4 in the series on soybean accessions (accession PI 603497 (China)); 4.5 in the series with soybean accessions (accession PI 603675 (China)); 2.6 with soybean accessions (accessions derived from Asia). Further, the average damage came to 3.0 in the series on soybean accessions (accessions derived from the Americas); 2.7 with soybean accessions (accessions from China); 3.1 in the series with soybean accessions (accessions from Costa Rica); 2.6 in the series with soybean accessions (accessions from Japan); 2.5 in the series on soybean accessions (accessions from South Korea); 2.3 in the series with soybean accessions (accessions from the United States). Further, the results for the average damage in the series with soybean accessions (accessions of maturity group MG 3), in the series on soybean accessions (accessions of maturity group MG 4) and with soybean accessions (accessions of maturity group MG 5) were 2.8, 2.7 and 2.5, respectively. Further, the “mean score of dicamba damage” value is listed as 1.58 in the series on soybean accessions (genotypes carrying all three favorable alleles (ss715605561, ss715635349, ss715632413)) and 2.90 in the series on soybean accessions (genotypes carrying all three unfavorable alleles (ss715605561, ss715635349, ss715632413)).
Consider `O=C(O)CNCP(=O)(O)O` [glyphosate, N-(phosphonomethyl)glycine], for which the water solubility result in series [1] is “high water solubility”.

The values above are taken from patent US20240180093A1, “GENETIC MARKERS AND SOYBEAN PLANTS WITH INCREASED TOLERANCE TO DICAMBA” (THE CURATORS OF THE UNIVERSITY OF MISSOURI, priority 2022, published 2024).
